In patent US11885796B2, “Assay to identify anti-cancer agents” (LDN Pharma Limited, priority 2017, dated 2024):

Key:
Type in all cases: cell-based
BAD = experiment: Level of expression of BAD by immunoblotting in HCT116 cells; settings: 48 h (FIG. 2)
Experimental: (§1) In order to determine the effect of 6-β-naltrexol or naltrexone on the level of expression of OPRK1, A549 lung cancer or HCT116 colon cancer cells were seeded onto 6-well plates at a density of 2×10^5 cell/well, and allowed to adhere overnight. Cells were then cultured in the presence of naltrexone or 6-β-naltrexol at concentrations of 1 nM, 10 nM, 100 nM, 1 μM or 10 μM for a further 48 h. Cells were then harvested and processed for measurements of OPRK1, opioid receptor-μ1 (OPRM1) and GAPDH using standard immunoblotting techniques. The effect of 6-β-naltrexol or naltrexone on the level of expression of BAD was investigated by using the same protocol as outlined above. The effect was determined in HCT116 cells using either 10 nM or 10 μM of 6-β-naltrexol or 10 nM or 10 μM naltrexone (FIG. 2).

A549 and HCT116 cells = experiment: Two-phase priming with 6-β-naltrexol then chemotherapy agent; cell number and viability by trypan blue cell counting
Experimental: The impact of combining 6-β-naltrexol with other chemotherapeutic agents was tested by culturing cells according to a treatment schedule that involved two phases of treatment. The first phase involved priming with 10 nM 6-β-naltrexol or 10 μM 6-β-naltrexol for 48 h, before treatment with another drug for a further 48 h. A549 and HCT116 cells were seeded into 6-well plates at a density of 2×10^5 cells/well and left to adhere overnight. Media was removed after 48 h, and cells were rinsed gently with drug-free medium. Fresh culture medium that contained cyclophosphamide (CPM), gemcitabine (GEM) or oxaliplatin (OXP) was then added to the cells. The concentrations of the chemotherapy agents used were approximately ¼ IC50, as established previously (Liu W M, Fowler D W, Smith P, Dalgleish A G. Pre-treatment with chemotherapy can enhance the antigenicity and immunogenicity of tumours by promoting adaptive immune responses. Br J Cancer. 2010 Jan. 5; 102(1):115-23). Cells were then left for a further 48 h before assessment of cell number of viability by cell counting using trypan blue dye as a way of discriminating live and dead cells. Cytostasis was indicated by a reduction in cell number and no associated reduction in cell viability.

OPRK1 [1] = experiment: Level of expression of OPRK1 by immunoblotting in HCT116 colon cancer cells; settings: 1 nM to 10 μM, 48 h, immunoblotting (FIG. 1)
Experimental: as §1

OPRK1 [2] = experiment: Level of expression of OPRK1 by immunoblotting in A549 lung cancer cells; settings: 1 nM to 10 μM, 48 h, immunoblotting (FIG. 1)
Experimental: as §1

Row | Compound | effect on the level of expression of BAD (BAD; 10 nM) | increase of the level of expression of BAD (BAD; 10 μM) | independent cytotoxicity of the priming agent (A549 and HCT116 cells; higher dose of 6-β-naltrexol alone (double doses control)) | cytotoxic effect of certain anti-cancer agents after priming (A549 and HCT116 cells; priming 48 h in an amount sufficient to raise OPRK1 expression by at least 10%, then cyclophosphamide, gemcitabine or oxaliplatin at approximately ¼ IC50 for 48 h) | level of expression of OPRK1 (OPRK1 [1]) | level of expression of OPRK1 (OPRK1 [2]) | effect on the level of expression of BAD (BAD; 10 μM)
1 | Oc1ccc2c3c1OC1[C@H](O)CC[C@@]4(O)[C@@H](C2)N(CC2CC2)CC[C@]314 (stereo partly drawn) [6-β-naltrexol, 17-(Cyclopropylmethyl)-4,5-epoxymorphinan-3,6beta, 14-triol] | negligible effect | more than 10% | absence of any independent increase in cytotoxicity | increased | increases the level of expression | increase the level of expression | 
2 | O=C1CC[C@@]2(O)[C@H]3Cc4ccc(O)c5c4[C@@]2(CCN3CC2CC2)[C@H]1O5 [naltrexone] | negligible effect |  |  |  | down-regulates the level of expression | increase the level of expression | negligible effect
